Earlier results as cited in patent US6977247B2, “Sequential therapy comprising a 20(S)-camptothecin and a pyrimidine base analog” (SuperGen, Inc., priority 2002, dated 2005).

Tests used:
[1] = test system: human colon cancer xenografts; settings: mouse, in vivo
[2] = test system: various types of cancer, including primary cancer and metastasis; settings: human, in vivo
[3] = test system: human tumor xenografts
[4] = administered intravenously; studies abandoned

CC[C@@]1(O)C(=O)OCc2c1cc1n(c2=O)Cc2cc3c(N)cccc3nc2-1 [9AC, 9-Amino-20(S)-Camptothecin]
anticancer activity against human colon cancer xenografts [1]: high anticancer activity

CC[C@@]1(O)C(=O)OCc2c1cc1n(c2=O)Cc2cc3c([N+](=O)[O-])cccc3nc2-1 [9NC, 9-nitrocamptothecin]
tumors known to regress after exposure [2]: breast carcinoma, ovarian carcinoma, cholangiocarcinoma, monomyelocytic leukemia, and pancreatic carcinoma
growth of human tumor xenografts ([3]; immunodeficient nude mice): inhibited the growth
regression of human tumors established as xenografts ([3]; nude mice): induced regression

CC[C@@]1(O)C(=O)OCc2c1cc1n(c2=O)Cc2cc3cc4c(cc3nc2-1)OCO4 [10, 2011 MD, 10, 2011-Methylendioxy-20(S)-Camptothecin]
anticancer activity against human colon cancer xenografts [1]: high anticancer activity

CC[C@@](O)(C(=O)[O-])c1cc2n(c(=O)c1CO)Cc1cc3ccccc3nc1-2.[Na+] [20(S)-camptothecin Na^+, sodium salt of 20(S)-camptothecin]
potency in clinical trials [4]: low potency
toxicity in clinical trials [4]: high toxicity

CC[C@@]1(O)C(=O)OCc2c1cc1n(c2=O)Cc2cc3ccccc3nc2-1 [20(S)-camptothecin]
solubility in water: insoluble in water
